From patent US11072632B2, “Inhibitors of 17β-HSD1, 17β-HSD3 and 17β-HSD10” (UNIVERSITÉ LAVAL, priority 2011, dated 2021)

Legend:
human ERα = target: T1, human ERα (Homo sapiens, UniProt P03372); experiment: ERα competitive binding assay (recombinant human ERα); conditions: FIG. 5B
T1 construct: purified full-length recombinant human ERα (Life Technologies, Grand Island, N.Y.); purchased Life Technologies
T1 sequence (P03372 1-595): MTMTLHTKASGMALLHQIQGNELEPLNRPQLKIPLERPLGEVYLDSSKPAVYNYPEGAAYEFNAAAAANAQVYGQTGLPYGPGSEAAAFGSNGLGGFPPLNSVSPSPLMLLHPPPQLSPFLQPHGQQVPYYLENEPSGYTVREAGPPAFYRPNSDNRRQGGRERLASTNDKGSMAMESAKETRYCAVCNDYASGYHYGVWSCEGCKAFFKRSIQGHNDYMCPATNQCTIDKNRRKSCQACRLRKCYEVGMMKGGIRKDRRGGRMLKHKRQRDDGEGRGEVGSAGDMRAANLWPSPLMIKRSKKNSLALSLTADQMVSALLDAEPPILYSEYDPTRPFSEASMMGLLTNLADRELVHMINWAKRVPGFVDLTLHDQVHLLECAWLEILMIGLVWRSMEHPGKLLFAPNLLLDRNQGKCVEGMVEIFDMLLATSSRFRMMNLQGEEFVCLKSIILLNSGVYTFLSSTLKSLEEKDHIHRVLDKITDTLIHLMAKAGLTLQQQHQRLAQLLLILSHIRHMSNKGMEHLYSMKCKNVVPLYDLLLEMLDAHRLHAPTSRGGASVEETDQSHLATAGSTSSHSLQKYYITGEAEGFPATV
Experimental: (§1) Non-specific binding was determined by incubation with an excess of cold estradiol (1 μM). After an overnight incubation at 4° C., 100 μl of cold 50% hydroxyapatite slurry was added to bind the receptor/ligand complex. After 15 minutes, 1 mL of wash buffer (40 mM Tris, 1 mM EDTA, 1 mM EGTA, 100 mM KCl, pH 7.4) was added and the tubes were centrifuged at 4500 rpm for 5 minutes at 4° C. The washing step was repeated twice. The radioactivity of the pellet was extracted by incubation with 1 mL of ethanol for 1 h at room temperature.
as §1, with “A competitive binding assay using a purified full-length recombinant human ERα (Life Technologies, Grand Island, N.Y.). […] Non-specific” for “Non-specific”, “E2” for “cold estradiol”, “μL” for “μl”

T-47D cells [1] = experiment: Inhibition of E1-stimulated T-47D cell proliferation; type: cell-based, human; conditions: control 100%
Experimental: (§2) Quantification of cell growth was determined by using CellTiter 96®Aqueous Solution Cell Proliferation Assay (Promega, Nepean, ON, Canada) following the manufacturer's instructions. T-47D cells were resuspended with the medium supplemented with insulin (50 ng/mL) and 5% dextran-coated charcoal treated FBS rather than 10% FBS to remove remaining hormones. Aliquots (100 μL) of the cell suspension were seeded in 96-well plates (3000 cells/well). After 48 h, the medium was changed with a new one containing an appropriate concentration of products to be tested and was replaced every 2 days. Cells have grown either in absence or presence of the compounds for 7 days. To determine the proliferative (estrogenic) activity, the estrogen-sensitive T-47D cells were grown in absence (basal cell proliferation was fixed as 100%) or presence of compounds to be tested at 0.5 to 10 μM. The potent estrogen E2 was used as a reference control. […] The cell proliferation without E1±inhibitor (control) was fixed as 100%. To determine the potential antiestrogenic activity of inhibitor Compound V, the T-47D (ER^+) cells were grown in the presence of estrogen E2 (0.1 nM) and pure antiestrogen EM-139 (0.5 μM) or inhibitor Compound V (0.5 μM). The cell proliferation without E2 and tested compounds (control) were fixed as 100%.

T-47D cells [2] = experiment: Estrogenic (proliferative) activity on T-47D (ER+) cell line; type: cell-based, human; conditions: 0.5, 1, 2.5 and 5 μM, 7 days
Experimental: as §2

T-47D tumors = experiment: Inhibition of E1-stimulated T-47D tumor growth in nude OVX mice (xenograft); type: in vivo, mouse
Experimental: Female OVX BALB/c athymic nude mice weighing approximately 20 g were obtained from Charles-River, Inc. (St-Constant, Qc., Canada). The animals were housed 5 per cage. […] T-47D tumor growth was stimulated using 0.1 μg of E1 s.c. per mouse per day for 15 days. From day 16, animals with tumors were randomized in function of tumor volume and separated into three groups. Group 1 (control mice) was treated s.c. with 100 μL of vehicle alone (8% EtOH/92% PG) per mouse per day. Group 2 (E1 0.1 μg) was treated with E1 (0.1 μg/day, s.c. per mouse) during 32 days. Group 3 (E1 0.1 μg+Compound V 250 μg) was treated with E1 (0.1 μg/day) and Compound V (250 μg/day) per mouse in a combined s.c. injection for 32 days. The mice were weighed at start and volumes of tumors were determined by external caliper twice a week and the greatest longitudinal diameter (length) and the greatest transverse diameter (width) were determined. Tumor volume based on caliper measurements was calculated by the modified ellipsoidal formula: Tumor volume=½(length×width^2) (Jensen M M, Jorgensen J T, Binderup T, Kjaer A. Tumor volume in subcutaneous mouse xenografts measured by microCT is more accurate and reproducible than determined by 18F-FDG-microPET or external caliper. BMC Med Imaging 2008; 8:16). At the end of the studies the mice were terminally anaesthetized, final body weights and tumor sizes were determined. Uteri and vagina were removed, excised of fat and weighed (Day J M, Foster P A, Tutill H J, Parsons M F, Newman S P, Chander S K, et al. 17beta-hydroxysteroid dehydrogenase type 1, and not type 12, is a target for endocrine therapy of hormone-dependent breast cancer. Int J Cancer 2008; 122:1931-40; Husen B, Huhtinen K, Poutanen M, Kangas L, Messinger J, Thole H. Evaluation of inhibitors for 17beta-hydroxysteroid dehydrogenase type 1 in vivo in immunodeficient mice inoculated with MCF-7 cells stably expressing the recombinant human enzyme. Mol Cell Endocrinol 2006; 248:109-13; Husen B, Huhtinen K, Saloniemi T, Messinger J, Thole H H, Poutanen M: Human hydroxysteroid (17-beta) dehydrogenase 1 expression enhances estrogen sensitivity of MCF-7 breast cancer cell xenografts. Endocrinology 2006; 147:5333-9; Messinger J, Hirvela L, Husen B, Kangas L, Koskimies P, Pentikainen O, et al. New inhibitors of 17beta-hydroxysteroid dehydrogenase type 1. Mol Cell Endocrinol 2006; 248:192-8).

T-47D cells [3] = experiment: Antiestrogenic activity, E2-induced T-47D proliferation; type: cell-based, human; conditions: E2 0.1 nM, compound 0.5 μM
Experimental: as §2

Row | SMILES | relative binding affinity (RBA) (human ERα) | cell growth, E1-induced (T-47D cells [1]; E1 0.1 nM + inhibitor 2.5 μM) | cell growth, E1-induced (T-47D cells [1]; E1 0.1 nM + inhibitor 5 μM) | estrogenic (proliferative) activity on T-47D cells (T-47D cells [2]) | toxicity (T-47D tumors; 250 μg/day/mouse (s.c.), 32 days) | effect on mouse weight (T-47D tumors; 32-day treatment period) | growth of E1-stimulated tumors inhibited (%) (T-47D tumors; E1 0.1 μg/day + Compound V 250 μg/day s.c., 32 days) | effect on E1-stimulated uterine and vaginal weight (T-47D tumors; E1 0.1 μg/day + Compound V 250 μg/day, 32 days) | antiestrogenic activity (reversal of E2-induced proliferation) (T-47D cells [3])
1 | C[C@]12CC[C@@H]3c4ccc(O)cc4CC[C@H]3[C@@H]1C[C@H](Cc1cccc(C(N)=O)c1)[C@@H]2O [Compound I, 16β-(m-carbamoylbenzyl)estradiol, reference compound] | 1.5% | – | – | – | – | – | – | – | –
2 | C[C@]12CC[C@@H]3c4ccc(CCBr)cc4CC[C@H]3[C@@H]1C[C@H](Cc1cccc(C(N)=O)c1)[C@@H]2O [Compound V, 3-{[(16β,17β)-3-(2-bromoethyl)-17-hydroxyestra-1(10),2,4-trien-16-yl]methyl}benzamide] | – | 156% | 125% | not estrogenic at any concentration tested | no apparent toxicity | no effect | 74% | had no effect on the E1-stimulated uterine and vaginal weight increase | does not reverse the proliferative effect
